Where two headings read alike, the source gives them in different places.
Tests used:
[1] = Acute toxicity, SWISS mouse (median lethal dose); details: in vivo, read-out: Median lethan dose
Protocol: (§1) The toxicities which are acute with the SWISS mouse and chronic with the albino rat are determined according to the usual standardized protocols.

rat [2] = experiment: Lethality in the rat; format: in vivo; details: administration of 1.12 g/kg to the rat
Protocol: as §1

TG 180 strain [3] = experiment: In vivo antitumoral test with the mouse, first experiment; design: species or system SWISS mouse; details: for number of survivors (tumor +) / number of survivors (tumor -) / number of animals with tumors: 15 mice per batch; for number of survivors (tumor +) / number of survivors (tumor -): compounds I to V alternately with CP and interferon; for number of animals with tumors: compounds I to V alternately with CP and interferon (0.5 ml of 8 mmolar solution), three weeks; for antitumoral therapeutic efficiency: with respect to reference batches No. 1, 2, 3 and 4, in words
Protocol: (3) In vivo antitumoral tests with the mouse.
The studies on the antitumoral properties have been carried out with the mouse according the CHANY and CERRUTI protocol (Int. J. Cancer, 1982, 30, 489) on the hereabove compounds I to V.
In order to obtain a tumor or tumors with mice, one uses the TG 180 strain (injection via the i.p. route of 10^6 cells for a male mouse of 25 g and of 0.1 ml of a solution of Corynbacterium Parvum Merieux (CP)).
This experiment bears on 135 SWISS mice devided into 9 batches of 15 mice each. After injection on day D0 of the TG 180 and CP cells, one proceeds in the following manner:
The reference batch No. 1 is treated every day with an injection of placebo.
The reference batch No. 2 is treated every day with an injection of CP (0.1 ml).
The reference batch No. 3 is treated every day with an injection of interferon EAT-113, 0.5 ml.
The reference batch No. 4 is treated every day alternately with CP and with interferon EAT-113, with the same doses as hereabove.
The experimental batches are treated, alternately on day D+1 with the compound according to the invention (0.5 ml of an 8 mmolar solution of a compound I to V), on day D+2 with interferon EAT-113, on day D+3 with CP, and this for three weeks.
The number of survivors is noted, as well as the presence or not of a tumor (tumor+ or tumor-) in the survivors five weeks after day D0.

Solubility in water = format: physicochemical
TG 180 strain [4] = experiment: In vivo antitumoral test with the mouse, first experiment; design: species or system SWISS mouse; details: 15 mice per batch; compounds I to V alternately with CP and interferon
[5] = tested on: neoplasic mammary cells (strain NCF 410); experiment: In vitro action on neoplasic mammary cells; format: cell-based; details: association with interferon EAT-113; in words
TG 180 strain [6] = experiment: In vivo antitumoral test with the mouse, second experiment (dose effect)
[7] = tested on: cells infected by the murine AIDS TR-26 virus; experiment: In vitro action on cells infected by murine AIDS virus; format: cell-based; details: in words
[8] = tested on: Herpes hominis type II virus; details: in vivo, with interferon EAT-113; in words
[9] = Solubilizing of the products for the in vivo antitumoral test; format: physicochemical; details: explanation for the small number of survivors; in words
rat [10] = details: Merck Index 10th edition; cited from earlier work
TG 180 strain [11] = details: mouse; cited from earlier work
[12] = rabbit, i.v. 0.12 g/kg, t=60 min; cited from earlier work
man = details: massive dose; Brazier et al; in words; cited from earlier work
herpes virus = details: in words; cited from earlier work
fibroblasts = details: in words; cited from earlier work

Row | SMILES | LD50 ([1]; ip) | LD50 ([1]; oral route) | number of survivors (tumor +) (TG 180 strain [3]) | number of survivors (tumor -) (TG 180 strain [3]) | number of animals with tumors (TG 180 strain [3]) | number of survivors after 6 weeks (TG 180 strain [4]) | further results
1 | CCCC(=O)O[C@@H]1[C@H]2OC(C)(C)O[C@H]2O[C@@H]1[C@H]1COC(C)(C)O1 [Compound I, O-butanoyl-3-di-O-isopropylidene 1,2: 5,6 α-D-glucofuranose] | 1750 ± 390 mg/kg | > 8000 mg/kg | 3 | 7 | 9 | 10 | lethality (rat [2]): does not cause any lethality; antitumoral therapeutic efficiency (TG 180 strain [3]): very good antitumoral therapeutic efficiency; solubility in water (Solubility in water; in words): slightly soluble in water
2 | CCCC(=O)O[C@@H]1[C@H]2OC(C)(C)O[C@H]2O[C@@H]1[C@H](O)CO [Compound II] | 4200 ± 400 mg/kg | > 8000 mg/kg | 0 | 9 | 10 | 9 | in vitro action compared with arginine butyrate and interferon EAT-113 [5]: stronger than the association of arginine butyrate and interferon EAT-113; survival after 100 days (TG 180 strain [6]; administered alternately with CP and interferon, whatever the concentration between 0.25 and 50 mmol/l): 30 mice amongst 45; number of surviving mice after 100 days (TG 180 strain [6]; alternately with CP, interferon omitted, average, 0.5 to 50 millimoles/l): 20 mice amongst 45; therapeutic results of the association with CP alone compared with interferon, CP plus arginine butyrate (TG 180 strain [6]; compound II plus CP, no interferon, in words): as good as the association of interferon with CP plus arginine butyrate; dose sufficient for obtaining the maximum therapeutic effect (TG 180 strain [6]; mouse): ≤ 0.44 mg of potential n-butyric acid per kilogramme of mouse; action in vitro compared with arginine butyrate [7]: stronger action in vitro on the cells infected by the murine AIDS TR-26 virus than the arginine butyrate; antitumoral therapeutic efficiency (TG 180 strain [3]): very good antitumoral therapeutic efficiency; solubility (Solubility in water; water, room temperature): > 100 mg/mL; potentialization of the action of interferon EAT-113 [8]: potentialization of the action of interferon EAT-113 on the Herpes hominis type II virus
3 | CCCC(=O)OC[C@@H](O)[C@H]1O[C@@H]2OC(C)(C)O[C@@H]2[C@H]1O [III, O-butanoyl-6-O-isopropylidene-1,2α-D-glucofuranose] | 3000 ± 350 mg/kg | > 8000 mg/kg | 3 | 8 | 7 | 11 | antitumoral therapeutic efficiency (TG 180 strain [3]): very good antitumoral therapeutic efficiency
4 | CCCC(=O)OC[C@@H](OC(=O)CCC)[C@H]1O[C@@H]2OC(C)(C)O[C@@H]2[C@H]1OC(=O)CCC [IV, tri-O-butanoyl 3,5,6-O-isopropylidene-1,2 α-D-glucofuranose] | > 8000 mg/kg | > 8000 mg/kg | 0 | 3 | 13 | 3 | solubilizing [9]: difficulties for solubilizing these products
5 | CCCC(=O)OCC(O)CO (centres unmarked) [IX, O-n-butanoyl-1, propane diol-2,3] | 2250 ± 230 mg/kg | > 8000 mg/kg |  |  |  |  | 
6 | CCCC(=O)OC[C@H]1O[C@@H]2OC(C)(C)O[C@@H]2[C@H]2OC(C)(C)O[C@H]21 [V, O-n-butanoyl-6 di-O-isopropylidene-1,2:3,4α-D-galactopyranose] | 2500 ± 400 mg/kg | > 8000 mg/kg | 0 | 3 | 12 | 3 | solubilizing [9]: difficulties for solubilizing these products
7 | CCCC(=O)OC[C@H]1OC(OC(=O)CCC)[C@H](OC(=O)CCC)[C@@H](OC(=O)CCC)[C@H]1OC(=O)CCC (stereo partly drawn) [VI, penta O-n-butanoyl-1,2,3,4,6 D-galactopyranose] | > 8000 mg/kg | > 8000 mg/kg |  |  |  |  | 
8 | CCCC(=O)OC[C@H]1OC(OC(=O)CCC)[C@H](OC(=O)CCC)[C@@H](OC(=O)CCC)[C@@H]1OC(=O)CCC (stereo partly drawn) [VII, penta- O-n-butanoyl-1,2,3,4,6 D-glucopyranose] | > 8000 mg/kg | > 8000 mg/kg |  |  |  |  | 
9 | CCCC(=O)OCC1COC(C)(C)O1 (centres unmarked) [VIII, O-n-butanoyl-1-isopropylidene-2,3-glyceryl] | 5400 ± 300 mg/kg | > 8000 mg/kg |  |  |  |  | 
10 | CCCCCCCCCCCCCCCC(=O)OCC(COC(=O)CCC)OC(=O)CCCCCCCCCCCCCCC (centres unmarked) [X, O-butanoyl-3-di-O-palmitoyl-1,2 glyceryl] | > 2000 mg/kg | > 6000 mg/kg |  |  |  |  | 
11 | CCCCCCCCCCCCCCCC(=O)OCC(COC(=O)CCC)OC(=O)CCC (centres unmarked) [XI, di-O-butanoyl-2,3 O-palmitoyl-1-glyceryl] | > 8000 mg/kg | > 8000 mg/kg |  |  |  |  | 
12 | CC(C)=O [acetone] |  |  |  |  |  |  | median lethal dose p.o. (rat [10]): 10.7 mL/kg
13 | CCCC(=O)O [arginine n-butyrate] |  |  |  |  |  |  | optimal dose advocated (TG 180 strain [11]): 14 mg of butyric acid; n-butyric acid present in serum [12]: 0 mmol/L; surviving mice after 100 days (TG 180 strain [6]; association of CP plus arginine butyrate without interferon): 8 mice amongst 45; therapeutic efficiency (TG 180 strain [6]; association of CP plus arginine butyrate without interferon, in words): low therapeutic efficiency; side effects in man (man): side effects in man, of the hyperammoniemy type with a reduction of the insulin secretion and disturbances of the urea cycle and of glucose metabolism
14 | CCCC(=O)[O-].[Na+] [sodium n-butyrate] |  |  |  |  |  |  | antiviral actions (herpes virus): antiviral actions of sodium butyrate have also been characterized for the herpes virus; inhibiting actions on the growth of fibroblasts (fibroblasts): interesting inhibiting actions on the growth of fibroblasts
